# pEC50: −log10 of the molar value.
# Molecular target: human F508del-CFTR (Homo sapiens, UniProt P13569, DEL508-508)
# Assay: F508del-CFTR cell surface expression (corrector activity), DiscoveRx ß-galactosidase complementation chemiluminescence assay in recombinant U2OS cell line;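 note: U2OS cells co-expressing ProLink-tagged F508del-CFTR and a membrane-anchored enzyme acceptor, where more surface CFTR restores β-galactosidase activity measured by chemiluminescence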
# Details: U2OS cell line, 16h compound incubation; for pEC50: EC50, F508del-CFTR cell surface expression, geomean values; for Emax: U2OS, in relation to the Emax of the corrector lumacaftor (=100%), arithmetic mean values
# Chain of human F508del-CFTR (P13569 with tags, fused parts or gaps DEL508-508): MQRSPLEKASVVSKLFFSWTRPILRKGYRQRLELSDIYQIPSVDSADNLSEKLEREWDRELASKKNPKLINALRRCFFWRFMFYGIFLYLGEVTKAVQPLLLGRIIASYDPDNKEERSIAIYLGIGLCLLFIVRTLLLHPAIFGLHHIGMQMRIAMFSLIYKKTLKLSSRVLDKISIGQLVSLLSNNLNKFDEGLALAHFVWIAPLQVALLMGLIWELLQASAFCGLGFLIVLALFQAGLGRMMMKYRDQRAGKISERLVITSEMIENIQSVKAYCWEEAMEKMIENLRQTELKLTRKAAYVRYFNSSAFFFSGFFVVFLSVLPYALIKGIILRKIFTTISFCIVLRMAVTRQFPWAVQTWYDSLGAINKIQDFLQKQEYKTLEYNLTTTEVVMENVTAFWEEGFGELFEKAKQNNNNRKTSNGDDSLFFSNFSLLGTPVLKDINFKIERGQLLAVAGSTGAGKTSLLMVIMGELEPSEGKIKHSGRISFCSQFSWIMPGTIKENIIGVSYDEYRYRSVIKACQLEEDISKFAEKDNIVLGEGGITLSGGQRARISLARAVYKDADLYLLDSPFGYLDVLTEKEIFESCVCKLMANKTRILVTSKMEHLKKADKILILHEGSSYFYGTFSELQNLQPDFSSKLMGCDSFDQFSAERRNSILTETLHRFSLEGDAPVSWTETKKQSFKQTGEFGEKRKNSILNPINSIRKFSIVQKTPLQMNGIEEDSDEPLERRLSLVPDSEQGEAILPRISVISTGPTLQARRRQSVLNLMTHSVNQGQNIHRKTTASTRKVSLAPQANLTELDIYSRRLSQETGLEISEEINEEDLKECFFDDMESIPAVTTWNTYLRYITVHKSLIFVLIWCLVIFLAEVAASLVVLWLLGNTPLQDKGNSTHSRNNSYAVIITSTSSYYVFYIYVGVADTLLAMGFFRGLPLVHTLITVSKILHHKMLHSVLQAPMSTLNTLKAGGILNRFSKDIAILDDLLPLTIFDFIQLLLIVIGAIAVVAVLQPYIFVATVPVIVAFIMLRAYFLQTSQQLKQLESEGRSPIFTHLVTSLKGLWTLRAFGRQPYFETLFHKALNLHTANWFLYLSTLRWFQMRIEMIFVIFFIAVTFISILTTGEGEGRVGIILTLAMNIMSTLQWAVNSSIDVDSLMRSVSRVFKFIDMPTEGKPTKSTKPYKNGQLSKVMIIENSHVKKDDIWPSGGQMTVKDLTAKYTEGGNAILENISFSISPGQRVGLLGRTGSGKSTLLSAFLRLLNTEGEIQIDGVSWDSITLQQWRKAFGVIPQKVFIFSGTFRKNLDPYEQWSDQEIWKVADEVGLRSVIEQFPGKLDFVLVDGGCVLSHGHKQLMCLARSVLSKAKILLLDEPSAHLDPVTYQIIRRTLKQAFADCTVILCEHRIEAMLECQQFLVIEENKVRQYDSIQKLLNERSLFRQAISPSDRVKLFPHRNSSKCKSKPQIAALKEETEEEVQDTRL
SMILES,pEC50,Emax [%]
"COc1cccc(-c2noc(CCNC(=O)[C@@H]3CC(=O)N(C)[C@@H](CC(C)C)C(=O)N4CCOC[C@@H]4C(=O)N[C@H](Cc4ccccc4)COc4cnc5ccccc5c4C(=O)N3)n2)c1 [Example 130, (9S,13S,19aR,22R)-22-benzyl-13-isobutyl-N-(2-(3-(3-methoxyphenyl)-1,2,4-oxadiazol-5-yl)ethyl)-12-methyl-7,11,14,20-tetraoxo-7,8,9,10,11,12,13,14,16,17,19,19a,20,21,22,23-hexadecahydro-[1,4]oxazino[3′,4′:6,7][1]oxa[4,7,10,14]tetraazacycloheptadecino[17,16-c]quinoline-9-carboxamide]",6.00,264
"COc1cccc(CCNC(=O)[C@@H]2CC(=O)N(C)[C@@H](CC(C)C)C(=O)N(C)C3(CC3)C(=O)N[C@H](Cc3ccccc3)COc3cnc4ccc(F)cc4c3C(=O)N2)c1 [Example 131, (3′S,7′S,13′R)-13′-benzyl-20′-fluoro-7′-isobutyl-N-(3-methoxyphenethyl)-6′,9′-dimethyl-1′,5′,8′,11′-tetraoxo-2′,3′,4′,5′,6′,7′,8′,9′,11′,12′,13′,14′-dodecahydro-1′H-spiro[cyclopropane-1,10′-[1]oxa[4,7,10,14]tetraazacycloheptadecino[17,16-c]quinoline]-3′-carboxamide]",6.90,320
"CC(C)C[C@H]1C(=O)N(C)C2(CC2)C(=O)N[C@H](Cc2ccccc2)COc2cnc3ccc(F)cc3c2C(=O)N[C@H](C(=O)NCCc2c(F)cccc2F)CC(=O)N1C [Example 132, (3′S,7′S,13′R)-13′-benzyl-N-(2,6-difluorophenethyl)-20′-fluoro-7′-isobutyl-6′,9′-dimethyl-1′,5′,8′,11′-tetraoxo-2′,3′,4′,5′,6′,7′,8′,9′,11′,12′,13′,14′-dodecahydro-1′H-spiro[cyclopropane-1,10′-[1]oxa[4,7,10,14]tetraazacycloheptadecino[17,16-c]quinoline]-3′-carboxamide]",6.96,313
"CC(C)C[C@H]1C(=O)N(C)C2(CC2)C(=O)N[C@H](Cc2ccccc2)COc2cnc3ccc(F)cc3c2C(=O)N[C@H](C(=O)NCCc2ccc(-c3cnccn3)cc2)CC(=O)N1C [Example 133, (3′S,7′S,13′R)-13′-benzyl-20′-fluoro-7′-isobutyl-6′,9′-dimethyl-1′,5′,8′,11′-tetraoxo-N-(4-(pyrazin-2-yl)phenethyl)-2′,3′,4′,5′,6′,7′,8′,9′,11′,12′,13′,14′-dodecahydro-1′H-spiro[cyclopropane-1,10′-[1]oxa[4,7,10,14]tetraazacycloheptadecino[17,16-c]quinoline]-3′-carboxamide]",6.83,213
"CC(C)C[C@H]1C(=O)N(C)C2(CC2)C(=O)N[C@H](Cc2ccccc2)COc2cnc3ccc(F)cc3c2C(=O)N[C@H](C(=O)NCCc2cccc(-c3cnccn3)c2)CC(=O)N1C [Example 134, (3′S,7′S,13′R)-13′-benzyl-20′-fluoro-7′-isobutyl-6′,9′-dimethyl-1′,5′,8′,11′-tetraoxo-N-(3-(pyrazin-2-yl)phenethyl)-2′,3′,4′,5′,6′,7′,8′,9′,11′,12′,13′,14′-dodecahydro-1′H-spiro[cyclopropane-1,10′-[1]oxa[4,7,10,14]tetraazacycloheptadecino[17,16-c]quinoline]-3′-carboxamide]",6.30,150
"CC(C)C[C@H]1C(=O)N(C)C2(CC2)C(=O)N[C@H](Cc2ccccc2)COc2cnc3ccc(F)cc3c2C(=O)N[C@H](C(=O)NCCc2ccc(-n3nccn3)cc2)CC(=O)N1C [Example 135, (3′S,7′S,13′R)-N-(4-(2H-1,2,3-triazol-2-yl)phenethyl)-13′-benzyl-20′-fluoro-7′-isobutyl-6′,9′-dimethyl-1′,5′,8′,11′-tetraoxo-2′,3′,4′,5′,6′,7′,8′,9′,11′,12′,13′,14′-dodecahydro-1′H-spiro[cyclopropane-1,10′-[1]oxa[4,7,10,14]tetraazacycloheptadecino[17,16-c]quinoline]-3′-carboxamide]",6.75,255
"CC(C)C[C@H]1C(=O)N(C)C2(CC2)C(=O)N[C@H](Cc2ccccc2)COc2cnc3ccc(F)cc3c2C(=O)N[C@H](C(=O)NCCc2cccc(-n3nccn3)c2)CC(=O)N1C [Example 136, (3′S,7′S,13′R)-N-(3-(2H-1,2,3-triazol-2-yl)phenethyl)-13′-benzyl-20′-fluoro-7′-isobutyl-6′,9′-dimethyl-1′,5′,8′,11′-tetraoxo-2′,3′,4′,5′,6′,7′,8′,9′,11′,12′,13′,14′-dodecahydro-1′H-spiro[cyclopropane-1,10′-[1]oxa[4,7,10,14]tetraazacycloheptadecino[17,16-c]quinoline]-3′-carboxamide]",6.57,271
"CC(C)C[C@H]1C(=O)N(C)C2(CC2)C(=O)N[C@H](Cc2ccccc2)COc2cnc3ccc(F)cc3c2C(=O)N[C@H](C(=O)NCCc2ccc(-c3ncccn3)cc2)CC(=O)N1C [Example 137, (3′S,7′S,13′R)-13′-benzyl-20′-fluoro-7′-isobutyl-6′,9′-dimethyl-1′,5′,8′,11′-tetraoxo-N-(4-(pyrimidin-2-yl)phenethyl)-2′,3′,4′,5′,6′,7′,8′,9′,11′,12′,13′,14′-dodecahydro-1′H-spiro[cyclopropane-1,10′-[1]oxa[4,7,10,14]tetraazacycloheptadecino[17,16-c]quinoline]-3′-carboxamide]",6.60,311
"CC(C)C[C@H]1C(=O)N(C)C2(CC2)C(=O)N[C@H](Cc2ccccc2)COc2cnc3ccc(F)cc3c2C(=O)N[C@H](C(=O)NCCc2cccc(-c3ncccn3)c2)CC(=O)N1C [Example 138, (3′S,7′S,13′R)-13′-benzyl-20′-fluoro-7′-isobutyl-6′,9′-dimethyl-1′,5′,8′,11′-tetraoxo-N-(3-(pyrimidin-2-yl)phenethyl)-2′,3′,4′,5′,6′,7′,8′,9′,11′,12′,13′,14′-dodecahydro-1′H-spiro[cyclopropane-1,10′-[1]oxa[4,7,10,14]tetraazacycloheptadecino[17,16-c]quinoline]-3′-carboxamide]",6.27,292
"CC(C)C[C@H]1C(=O)N(C)C2(CC2)C(=O)N[C@H](Cc2ccccc2)COc2cnc3ccc(F)cc3c2C(=O)N[C@H](C(=O)NCCc2cnn(C3CC3)c2)CC(=O)N1C [Example 139, (3′S,7′S,13′R)-13′-benzyl-N-(2-(1-cyclopropyl-1H-pyrazol-4-yl)ethyl)-20′-fluoro-7′-isobutyl-6′,9′-dimethyl-1′,5′,8′,11′-tetraoxo-2′,3′,4′,5′,6′,7′,8′,9′,11′,12′,13′,14′-dodecahydro-1′H-spiro[cyclopropane-1,10′-[1]oxa[4,7,10,14]tetraazacycloheptadecino[17,16-c]quinoline]-3′-carboxamide]",6.33,381
"CC(C)C[C@H]1C(=O)N(C)C2(CC2)C(=O)N[C@H](Cc2ccccc2)COc2cnc3ccc(F)cc3c2C(=O)N[C@H](C(=O)NCCc2nc(C3CC3)no2)CC(=O)N1C [Example 140, (3′S,7′S,13′R)-13′-benzyl-N-(2-(3-cyclopropyl-1,2,4-oxadiazol-5-yl)ethyl)-20′-fluoro-7′-isobutyl-6′,9′-dimethyl-1′,5′,8′,11′-tetraoxo-2′,3′,4′,5′,6′,7′,8′,9′,11′,12′,13′,14′-dodecahydro-1′H-spiro[cyclopropane-1,10′-[1]oxa[4,7,10,14]tetraazacycloheptadecino[17,16-c]quinoline]-3′-carboxamide]",6.85,318
"Cc1cc(CCNC(=O)[C@@H]2CC(=O)N(C)[C@@H](CC(C)C)C(=O)N(C)C3(CC3)C(=O)N[C@H](Cc3ccccc3)COc3cnc4ccc(F)cc4c3C(=O)N2)no1 [Example 141, (3′S,7′S,13′R)-13′-benzyl-20′-fluoro-7′-isobutyl-6′,9′-dimethyl-N-(2-(5-methylisoxazol-3-yl)ethyl)-1′,5′,8′,11′-tetraoxo-2′,3′,4′,5′,6′,7′,8′,9′,11′,12′,13′,14′-dodecahydro-1′H-spiro[cyclopropane-1,10′-[1]oxa[4,7,10,14]tetraazacycloheptadecino[17,16-c]quinoline]-3′-carboxamide]",6.50,331
"CC(C)C[C@H]1C(=O)N(C)C2(CC2)C(=O)N[C@H](Cc2ccccc2)COc2cnc3ccc(F)cc3c2C(=O)N[C@H](C(=O)NCCc2cc(C3CC3)on2)CC(=O)N1C [Example 142, (3′S,7′S,13′R)-13′-benzyl-N-(2-(5-cyclopropylisoxazol-3-yl)ethyl)-20′-fluoro-7′-isobutyl-6′,9′-dimethyl-1′,5′,8′,11′-tetraoxo-2′,3′,4′,5′,6′,7′,8′,9′,11′,12′,13′,14′-dodecahydro-1′H-spiro[cyclopropane-1,10′-[1]oxa[4,7,10,14]tetraazacycloheptadecino[17,16-c]quinoline]-3′-carboxamide]",6.71,381
"CC(C)C[C@H]1C(=O)N(C)C2(CC2)C(=O)N[C@H](Cc2ccccc2)COc2cnc3ccc(F)cc3c2C(=O)N[C@H](C(=O)NCCc2cnn(C)c2)CC(=O)N1C [Example 143, (3′S,7′S,13′R)-13′-benzyl-20′-fluoro-7′-isobutyl-6′,9′-dimethyl-N-(2-(1-methyl-1H-pyrazol-4-yl)ethyl)-1′,5′,8′,11′-tetraoxo-2′,3′,4′,5′,6′,7′,8′,9′,11′,12′,13′,14′-dodecahydro-1′H-spiro[cyclopropane-1,10′-[1]oxa[4,7,10,14]tetraazacycloheptadecino[17,16-c]quinoline]-3′-carboxamide]",6.04,320
"CC(C)C[C@H]1C(=O)N(C)C2(CC2)C(=O)N[C@H](Cc2ccccc2)COc2cnc3ccc(F)cc3c2C(=O)N[C@H](C(=O)NCCc2noc(C3CC3)n2)CC(=O)N1C [Example 144, (3′S,7′S,13′R)-13′-benzyl-N-(2-(5-cyclopropyl-1,2,4-oxadiazol-3-yl)ethyl)-20′-fluoro-7′-isobutyl-6′,9′-dimethyl-1′,5′,8′,11′-tetraoxo-2′,3′,4′,5′,6′,7′,8′,9′,11′,12′,13′,14′-dodecahydro-1′H-spiro[cyclopropane-1,10′-[1]oxa[4,7,10,14]tetraazacycloheptadecino[17,16-c]quinoline]-3′-carboxamide]",6.68,327

# — patent US20240208992A1, “MACROCYCLES AS CFTR MODULATORS” (Idorsia Pharmaceuticals Ltd, priority 2021, published 2024)
